Experimental findings from ChEMBL document CHEMBL1777778 (Bioorg Med Chem Lett, 2011) are described below.

In brackets after ≈: the same amount, converted by molar mass.

The nature of series [1]: Oral bioavailability in Hanover Wistar rat at 3 mg/kg. The class given is ADME, organism-based. The conditions noted are these: in vivo.
Series [2] in a line: Permeability across apical to basolateral side of human Caco2 cells at 10 uM after 21 days. The class given is ADME, cell-based. The conditions noted are these: Caco-2, read-out: permeability. In general terms: Caco-2 monolayers are a common model of the intestinal barrier.
Series [3] can be described thus: Cmax in Hanover Wistar rat at 3 mg/kg, po. The class given is ADME, organism-based. Also noted: dose 3 mg/kg, route oral. The conditions noted are these: in vivo.
Series [4] in a line: AUC in Hanover Wistar rat at 3 mg/kg, po. The class given is ADME, organism-based. Details: dose 3 mg/kg, route oral. The following applies: plasma.
A short description of series [5]: Intrinsic clearance in human liver microsomes assessed per mg of protein. The class given is ADME, Microsome. For orientation: Liver microsomes are vesicles of endoplasmic reticulum, rich in cytochrome P450 enzymes.
Series [6] is described as follows: Intrinsic clearance in rat liver microsomes assessed per mg of protein. The class given is ADME, Microsome.
Series [7] can be described thus: Half life in Hanover Wistar rat at 3 mg/kg, iv. The class given is ADME, organism-based. Details: dose 3 mg/kg, route intravenous. The conditions noted are these: in vivo.
Series [8] is described as follows: Clearance in Hanover Wistar rat at 3 mg/kg, iv. The class given is ADME, organism-based. Also noted: dose 3 mg/kg, route intravenous. The following applies: in vivo.
The nature of series [9]: Volume of distribution at steady state in Hanover Wistar rat at 3 mg/kg, iv. The following applies: in vivo, read-out: Vdss. Details: dose 3 mg/kg, route intravenous. The class given is ADME, organism-based.
Series [10] in a line: Permeability across basolateral to apical side in human Caco2 cells at 10 uM after 21 days. The conditions noted are these: Caco-2, read-out: permeability. The class given is ADME, cell-based.
Series [11] can be described thus: Aqueous solubility of the compound in phosphate buffer at pH 6.5 by reverse phase HPLC analysis. The class given is physicochemical.

As a reminder, the Cmax is the maximum level reached in the sampled fluid or tissue. One may read the AUC as the area under the concentration-time curve, a measure of exposure. Broadly, the microsomal CLint is the capacity of the preparation to metabolise the compound, expressed as a volume cleared per time. A lower microsomal CLint goes with greater metabolic stability. For orientation: half-life means the time needed for the level to fall by half in the phase considered. What is called clearance is a measure of how efficiently the substance is removed, as volume per time. High values mean efficient removal, low ones inefficient removal. By solubility is commonly meant how much of the substance goes into solution per volume. Low values mean a poorly soluble substance, high ones a readily soluble substance. On to `C[C@H](CS(C)(=O)=O)Nc1n[nH]c2nc(Oc3ccc(F)cc3F)ncc12`, for which, in [1], the bioavailability was 105%. The Papp A→B at 10 µM in [2] turned out to be 3 ×10⁻⁶ cm/s. Moreover, the maximum concentration (Cmax) in series [3] came to 446 ng/mL. Further, the AUC in series [4] was found to be 1220 ng·h/mL. The intrinsic metabolic clearance (microsomal CLint) in series [5] is 0.74 µL/min/mg; in series [6] it was 6.2 µL/min/mg. The half-life in series [7] was 3.4 h. Besides, in series [8], the clearance is 43.6 mL/min/kg. In addition, the Vd in series [9] is 8.1 L/kg. For the same molecule, in series [10], the Papp B→A at 10 µM amounted to 18.9 ×10⁻⁶ cm/s. In addition, in [11], the solubility was determined as 57.2 µg/mL (≈ 149 µM).
